Patent US8563717B2, “Adenine derivatives” (GlaxoSmithKline LLC, priority 2008, dated 2013)
Structures can show the parent of a compound that is named as a salt.

System: Interferon-α
Assay: Induction of Interferon-α using cryopreserved human PBMCs
Type: cell-based
Conditions: PBMC, 24 h incubation, normalised to 1 uM resiquimod, read-out: mean pEC50 for induction of IFN-α (converted)
Method: Assay for the Induction of Interferon-α Using Cryopreserved Human Peripheral Blood Mononuclear Cells (PBMCs)
Compounds were dissolved in DMSO. Serial 2-fold dilutions with DMSO were prepared and 0.25 μl dispensed into 384-well clear Greiner polypropylene plates.
Blood samples of up to 200 ml were obtained from healthy human donors. Whole blood in 25 ml volumes was overlaid onto 15 ml Ficoll gradients in Leucosep tubes, and centrifuged at 1000 g for 20 min. Cells in the band at the plasma/histopaque interface were carefully removed and washed twice with PBS (centrifuged at 400 g for 5 min to harvest). The final pellet was resuspended in freezing medium (90% Heat-inactivated serum, 10% DMSO) to a cell concentration of 4×10^7 cells/ml. The resuspended cells were then cryopreserved (frozen) using a rate controlled freezer, and stored at −140° C. for up to 4 months.
Immediately prior to assay, vials of cryopreserved (frozen) PBMCs were thawed rapidly in a water bath at 37° C. A 1:10 dilution of the cells in trypan blue was prepared and counted. The PBMCs were then diluted in growth media [RPMI 1640 containing 10% fetal calf serum (invitrogen), Penicillin+[…] (Gibco cat. #25030-024, 1:50), L-Glutamine 2 mM, and 1000 units/ml recombinant human IFN-gamma (Preprotech catalogue #300-02)] to a density of 1×10^6 cells/ml, and 50 ul/well dispensed to 384-well clear Greiner polypropylene plates containing 0.25 μl DMSO or test compound in 0.25 μl DMSO. […] Plates were incubated for 24 h at 37° C. in 5% CO2.
A multi-isoform immunoassay was used to quantify IFN-α in PBMC supernatants. Rabbit polyclonal antibody against human IFN-α (catalogue number 31101, Stratech Scientific) was diluted 1:10000 in assay buffer (RPMI 1640 containing 10% fetal calf serum, Invitrogen) and 20 μl was added to each well of an MSD (Meso-Scale Discovery) single small-spot 384-well GAR (goat anti-rabbit antibody coated) plate. The plate was incubated for 1 hour at room temperature with vigorous shaking. Following three washes with PBS, 20 μl of cell supernatant were added to each well of the plate. The plate was then incubated for 1 hour at room temperature with vigorous shaking. A pair of monoclonal antibodies to IFN-α (catalogue numbers 21100 and 21112, Stratech Scientific) were labelled with sulfo-TAG (MSD), diluted 1:1000 in assay buffer and 20 μl added to each well of the plate. The plate was further incubated for 1 hour at room temperature with vigorous shaking. Following three washes with PBS, 30 μl of x2 T buffer (MSD) was added to each well and the plate was read on an MSD Sector 6000 plate reader.
Data were normalised to internal plate controls of 1 uM resiquimod (n=16) and DMSO (n=16). pEC50 values were derived by 4-parameter curve fit with IRLS in ActivityBase, from 11-point, two-fold serial dilution of test compounds.

SMILES | EC50 [nM]
CCCCOc1nc(N)c2[nH]c(=O)n(CC3CCN(C4CCCCC4)CC3)c2n1 [Example 76, 6-Amino-2-(butyloxy)-9-[(1-cyclohexyl-4-piperidinyl)methyl]-7,9-dihydro-8H-purin-8-one] | < 1580
CCCCOc1nc(N)c2[nH]c(=O)n(CCCC3CCCN(CCC4CCCCC4)C3)c2n1 (stereo not shown) [Example 52, 6-Amino-2-(butyloxy)-9-{3-[1-(2-cyclohexylethyl)-3-piperidinyl]propyl}-7,9-dihydro-8H-purin-8-one] | < 1580
CCCCNc1nc(N)c2[nH]c(=O)n(CCCCC3CCN(CC)CC3)c2n1 [Example 121, 6-Amino-2-(butylamino)-9-[4-(1-ethyl-4-piperidinyl)butyl]-7,9-dihydro-8H-purin-8-one] | < 1580
CCCCOc1nc(N)c2[nH]c(=O)n(CCCC3CCCN(CCCC)C3)c2n1 (stereo not shown) [Example 47, 6-Amino-2-(butyloxy)-9-[3-(1-butyl-3-piperidinyl)propyl]-7,9-dihydro-8H-purin-8-one] | < 1580
CCC[C@H](C)Oc1nc(N)c2[nH]c(=O)n(CCC3CCCNC3)c2n1 (stereo partly drawn) [Example 40, 6-Amino-2-{[(1S)-1-methylbutyl]oxy}-9-[2-(3-piperidinyl)ethyl]-7,9-dihydro-8H-purin-8-one] | < 1580
CCCCOc1nc(N)c2[nH]c(=O)n(CCCCCC3CCN(CCC4CCCCC4)CC3)c2n1 [Example 131, 6-Amino-2-(butyloxy)-9-{5-[1-(2-cyclohexylethyl)-4-piperidinyl]pentyl}-7,9-dihydro-8H-purin-8-one hydrochloride] | < 1580
CCCCOc1nc(N)c2[nH]c(=O)n(CCCC3CCCN(CCC)C3)c2n1 (stereo not shown) [Example 45, 6-Amino-2-(butyloxy)-9-[3-(1-propyl-3-piperidinyl)propyl]-7,9-dihydro-8H-purin-8-one] | < 1580
CCCCOc1nc(N)c2[nH]c(=O)n(CCCC3CCCN(C4CCCC4)C3)c2n1 (stereo not shown) [Example 50, 6-Amino-2-(butyloxy)-9-[3-(1-cyclopentyl-3-piperidinyl)propyl]-7,9-dihydro-8H-purin-8-one] | < 1580
CCCCOc1nc(N)c2[nH]c(=O)n(CCCC3CCN(CCC4CCCCC4)CC3)c2n1 [Example 103, 6-Amino-2-(butyloxy)-9-{3-[1-(2-cyclohexylethyl)-4-piperidinyl]propyl}-7,9-dihydro-8H-purin-8-one] | < 1580
CCCCOc1nc(N)c2[nH]c(=O)n(CCCC3CCN(CC4CCCC4)CC3)c2n1 [Example 101, 6-Amino-2-(butyloxy)-9-{3-[1-(cyclopentylmethyl)-4-piperidinyl]propyl}-7,9-dihydro-8H-purin-8-one] | < 1580
CCCCOc1nc(N)c2[nH]c(=O)n(CCC3CCCCN3CC)c2n1 (stereo not shown) [Example 12, 6-Amino-2-(butyloxy)-9-[2-(1-ethyl-2-piperidinyl)ethyl]-7,9-dihydro-8H-purin-8-one] | < 1580
CCCCOc1nc(N)c2[nH]c(=O)n(CCCC3CCN(C4CCCC4)CC3)c2n1 [Example 100, 6-Amino-2-(butyloxy)-9-[3-(1-cyclopentyl-4-piperidinyl)propyl]-7,9-dihydro-8H-purin-8-one] | < 1580
CCCCOc1nc(N)c2[nH]c(=O)n(CCCC3CCN(C(CC)CC)CC3)c2n1 [Example 98, 6-Amino-2-(butyloxy)-9-{3-[1-(1-ethylpropyl)-4-piperidinyl]propyl}-7,9-dihydro-8H-burin-8-one] | < 1580
CCCCOc1nc(N)c2[nH]c(=O)n(CC3CCN(C4CCCC4)CC3)c2n1 [Example 75, 6-Amino-2-(butyloxy)-9-[(1-cyclopentyl-4-piperidinyl)methyl]-7,9-dihydro-8H-purin-8-one] | < 1580
CCCCOc1nc(N)c2[nH]c(=O)n(CC3CCN(CCC(C)C)CC3)c2n1 [Example 74, 6-Amino-2-(butyloxy)-9-{[1-(3-methylbutyl)-4-piperidinyl]methyl}-7,9-dihydro-8H-purin-8-one] | < 1580
CCCCOc1nc(N)c2[nH]c(=O)n(CCCC3CCCCN3CC3CCCC3)c2n1 (stereo not shown) [Example 21, 6-Amino-2-(butyloxy)-9-{3-[1-(cyclopentylmethyl)-2-piperidinyl]propyl}-7,9-dihydro-8H-purin-8-one] | < 1580
